Source: patent US8367655B2, “Pyridoindolobenzox—and thiazepine derivatives and uses thereof” (Daya Drug Discoveries, Inc., priority 2009, dated 2013)

What was measured:
5-HT2A receptor = 5-HT2A receptor (Homo sapiens, UniProt P28223); assay: Serotonin and dopamine receptor binding: 5-HT2A
D2 receptor = D2 receptor (Homo sapiens, UniProt P14416); assay: Serotonin and dopamine receptor binding: D2
5-HT2C receptor = target: T1, 5-HT2C receptor (Homo sapiens, UniProt P28335); assay: Serotonin and dopamine receptor binding: 5-HT2C
T1 sequence (P28335 33-458): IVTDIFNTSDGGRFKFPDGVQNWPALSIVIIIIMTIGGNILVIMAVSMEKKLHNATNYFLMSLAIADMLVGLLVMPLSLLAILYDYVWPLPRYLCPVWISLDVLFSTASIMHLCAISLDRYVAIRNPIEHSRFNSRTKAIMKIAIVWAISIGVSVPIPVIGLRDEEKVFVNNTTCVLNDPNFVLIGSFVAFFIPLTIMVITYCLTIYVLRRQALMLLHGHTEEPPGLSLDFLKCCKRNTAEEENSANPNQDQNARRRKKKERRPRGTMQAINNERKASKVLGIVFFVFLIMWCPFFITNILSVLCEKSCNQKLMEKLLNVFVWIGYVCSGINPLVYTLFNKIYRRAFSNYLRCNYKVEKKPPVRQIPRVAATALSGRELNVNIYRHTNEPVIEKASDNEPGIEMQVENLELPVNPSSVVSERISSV

rats [1] = assay: Amphetamine-induced motor activity; format: in vivo
Protocol: Effects of compound 2 on amphetamine-induced motor activity (FIG. 4 Graph). All rats were habituated to the motor box for 30 min followed by injection of compound 2 or vehicle. After 30 min all rats were injected with 1 mg/kg, i.p. amphetamine (a dose that is known to elevate locomotion in rats) and their motor activity was recorded for 2 hr.

rats [2] = assay: Amphetamine-induced sensorimotor gating deficits (prepulse inhibition, PPI); format: in vivo; settings: 1 mg/kg ip, amphetamine 3 mg/kg ip, 120 dB pulse, 71 dB pre-pulse, p<0.01
Protocol: Effects of compound 2 on amphetamine-induced sensorimotor gating deficits (FIG. 4 Table). Once the compound 2 dose range was determined by motor assessments, a separate group of rats were used to study PPI. Rats were treated with vehicle (75% DMSO) or DDD-016 in the DMSO vehicle; 30 min later amphetamine (3 mg/kg ip) or saline was administered, and the startle session was initiated after an additional 30 min. (The 3 mg/kg dose of amphetamine is sufficient to induced robust deficits in PPI; 1 mg/kg is subtrheshold; data not shown.) Shown are startle data from a 120 dB pulse, preceded 100 ms by a 71 dB pre-pulse.

rats [3] = assay: Pilot dose-selection study (catalepsy, locomotion); format: in vivo

Sequence of D2 receptor (P14416 whole entry): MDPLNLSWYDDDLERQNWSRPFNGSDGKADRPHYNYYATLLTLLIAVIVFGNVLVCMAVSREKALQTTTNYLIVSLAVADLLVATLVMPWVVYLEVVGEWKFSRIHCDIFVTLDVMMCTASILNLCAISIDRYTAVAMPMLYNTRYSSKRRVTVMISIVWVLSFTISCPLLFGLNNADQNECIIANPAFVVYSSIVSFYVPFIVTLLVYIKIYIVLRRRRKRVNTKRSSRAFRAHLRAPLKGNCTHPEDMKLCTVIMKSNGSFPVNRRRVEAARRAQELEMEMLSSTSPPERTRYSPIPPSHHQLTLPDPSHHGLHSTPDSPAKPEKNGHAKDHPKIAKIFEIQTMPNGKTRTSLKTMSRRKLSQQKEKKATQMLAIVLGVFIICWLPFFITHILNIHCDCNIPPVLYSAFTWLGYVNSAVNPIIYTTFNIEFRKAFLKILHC
Sequence of 5-HT2A receptor (P28223 whole entry): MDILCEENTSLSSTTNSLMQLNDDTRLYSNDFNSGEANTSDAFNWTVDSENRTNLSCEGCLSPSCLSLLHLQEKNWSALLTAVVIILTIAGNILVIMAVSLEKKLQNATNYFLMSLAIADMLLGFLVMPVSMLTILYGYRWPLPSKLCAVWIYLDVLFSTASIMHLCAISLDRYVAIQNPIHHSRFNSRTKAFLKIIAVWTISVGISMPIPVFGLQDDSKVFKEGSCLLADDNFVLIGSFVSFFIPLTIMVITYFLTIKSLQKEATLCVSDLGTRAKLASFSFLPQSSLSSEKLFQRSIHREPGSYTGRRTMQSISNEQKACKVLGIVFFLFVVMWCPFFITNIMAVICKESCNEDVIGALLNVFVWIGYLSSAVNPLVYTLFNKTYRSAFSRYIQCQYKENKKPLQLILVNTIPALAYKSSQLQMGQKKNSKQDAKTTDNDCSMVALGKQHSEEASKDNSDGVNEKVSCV

Structure (SMILES): CN1CCc2c(c3cccc4c3n2-c2ccccc2CO4)C1 [Compound 9]
- IC50 (5-HT2A receptor): 8 nM
- IC50 (D2 receptor): 500 nM
- IC50 (5-HT2C receptor): 50 nM

Structure (SMILES): CN1CC[C@@H]2[C@@H](C1)c1cccc3c1N2c1ccccc1CS3 [Compound 4]
- IC50 (5-HT2A receptor): 3 nM
- receptor binding activity (in words) (5-HT2A receptor; stated jointly for 5-HT2A, 5-HT2C and D2 receptors): most potent amongst all
- IC50 (D2 receptor): 20 nM
- IC50 (5-HT2C receptor): 5 nM

Structure (SMILES): O=C(CCCN1CCc2c(c3cccc4c3n2-c2ccccc2CS4)C1)c1ccc(F)cc1 [Compound 6]
- IC50 (5-HT2A receptor): 5 nM
- IC50 (D2 receptor): 8 nM
- IC50 (5-HT2C receptor): 80 nM

Structure (SMILES): CN1CC[C@H]2[C@@H](C1)c1cccc3c1N2c1ccccc1CS3 [Compound 3]
- IC50 (5-HT2A receptor): 5 nM
- IC50 (D2 receptor): 500 nM
- IC50 (5-HT2C receptor): 15 nM

Structure (SMILES): CN1CCc2c(c3cccc4c3n2-c2ccccc2CS4)C1 [Compound 2]
- IC50 (5-HT2A receptor): 1 nM
- horizontal activity, comparison of doses (rats [1]; 3 mg/kg vs 10 mg/kg, ANOVA with post hoc Newman Keuls, p<0.05): difference between 3 mg/kg and 10 mg/kg
- effect on amphetamine-induced motor activity (rats [1]; 10 mg/kg, 30 min before 1 mg/kg i.p. amphetamine, activity recorded 2 hr): trend for 10 mg/kg of 2 to reduce the effects of amphetamine
- effect on amphetamine-induced % PPI deficit (rats [2]): blunted this deficit
- locomotor effect (rats [3]; 3 mg/kg, vs vehicle (75% DMSO)): did not differentiate from vehicle
- locomotor effect (rats [3]; 10 mg/kg): Some locomotor reduction
- catalepsy (rats [3]; 30 mg/kg ip, without a loss of right reflex): robust catalepsy
- IC50 (D2 receptor): 80 nM
- IC50 (5-HT2C receptor): 10 nM
